In test [1] the test system is PBMCs. Nature of the test: VPD450 proliferation test (flow cytometry) on PBMCs. The class given is cell-based, human. To be noted: for EC50: Homo sapiens, PBMC, PBMCs stimulated with anti-CD3/anti-CD28 beads, 72 h, mean ± SD; for SI selectivity index PBMCs (IC50/EC50): ratio between IC50 (XTT) and EC50 (VPD450) on PBMCs. How it is done:
(§1) These values indicate the concentration of any compound at which proliferation of PBMCs (healthy cells), and T-Jurkat cells (T-cell leukemia), is inhibited by 50% compared to the control. Cells were treated with the compounds for 72 h (PBMCs) or 48 h (T-Jurkat), followed by a […] VPD450 test. The results are presented in ESI Fig. S3 as proliferation curves concerning concentration.
(§2) ESI Figure 3. Concentration-dependent change in proliferation under the treatment of ester derivatives of MPA. (A) VPD450-labelled PBMCs were cultured in the presence of different concentrations (100; 50; 25; 10; 1; 0.1, and 0.01 μM) of MPA, MMF, and ester derivatives, and stimulated with magnetic beads coated with anti-CD3 and anti-CD28 antibodies for 72 hours. (B) VPD450-labelled T-Jurkat cells were cultured in the presence of different concentrations (100; 10; 1; 0.1 and 0.01 μM) of MPA and ester derivatives for 48 hours. The plots were separated based on the type of ester derivative (P or MP). Cell proliferation was analyzed using flow cytometry. The results are expressed […]
(§3) (1 picture or pasted object on this page, not shown here) […]
(§4) inhibited cell viability by more than 50%. Each experiment was conducted in triplicate, and the final […]
(§5) VPD450 dye-based in vitro cell proliferation test
(§6) PBMCs and T-Jurkat cells were washed twice with warm PBS (37°C), re-suspended in fresh PBS at a final concentration of 10-30∙10^6 cells/ml, and labelled with 1 µl of VPD450 (BD Biosciences) at 37°C for 15 minutes, with vortexing every 5 minutes to ensure uniform staining. Subsequently, cells were washed with PBS, then with the complete medium (X-VIVO20 for PBMCs and RPMI-1640 for T-Jurkat cells), next re-suspended in fresh complete medium and seeded into 96-well plates at a concentration of 1∙10^6 cells per well. PBMCs were additionally stimulated with magnetic beads coated with anti-CD3 and anti-CD28 antibodies (Invitrogen) at a 2:1 cell-to-bead ratio. To the experimental wells, 100 µl of the MPA derivatives were added to achieve final concentrations of 50, 25, 10, 5, 1, 0.1, and 0.01 µM. In parallel, control wells containing stained but unstimulated cells and stained, stimulated cells were prepared at the same concentration. Cell proliferation was analyzed using an LSRFortessa flow cytometer (BD Biosciences) and Kaluza C Flow Cytometry Analysis Software (Beckman Coulter). […]
(§7) Statistical analysis was conducted using GraphPad Prism 9 (GraphPad Software Inc).
(§8) Differences between MMF, MPA and its new derivatives were assessed using a two-tailed unpaired Student’s t-test, with statistical significance defined as p < 0.05. EC50 and IC50 values were determined by fitting data to a four-parameter non-linear regression model in GraphPad Prism 9. Statistical significance was evaluated using the t-test.
In general terms: A flow cytometer gives signals particle by particle.

Test [2] relates to T-Jurkat cells. Description: XTT cytotoxicity test on T-Jurkat cell line. The class given is cell-based, human. On the procedure:
(§9) Table 3 presents the IC50 values obtained from the XTT test on PBMCs and the T-Jurkat cell line, using MPA and MMF as standards. These values indicate the concentration of each compound required to reduce the viability of PBMCs (healthy cells) and T-Jurkat cells (T-cell leukemia) by 50% compared to the control. Cells were treated with compounds for 72 h (PBMCs) or 48 h (T-Jurkat), followed by a colorimetric XTT test. The results are illustrated in ESI Fig. S2 as a viability curve in relation to concentration.
Biological evaluation — PBMC and T-Jurkat cells
The T-Jurkat cell line (Clone E6-1, ATCC TIB-152), derived from a human acute T-cell leukemia, was obtained from the cell bank of the Department of Medical Immunology at the Medical University of Gdańsk. Before experimentation, the cells were thawed and cultured for about 7 days to reach the logarithmic phase of growth. The T-Jurkat cell line was suspended in a complete RPMI medium, which included RPMI-1640, 10% FBS, penicillin (100 U/ml), and streptomycin ([…]).
(§10) Human peripheral blood mononuclear cells (PBMCs) were isolated from buffy coats provided by anonymous, healthy volunteers with an average age of 35±4 years during routine transfusion procedure. These samples were received by the Authors from the Regional Centre for Blood Donation and Treatment in Gdańsk (Poland). […]
(§11) solely for PBMCs isolation. PBMCs were suspended in a complete X-VIVO medium, consisting of X-VIVO20, 10% heat-inactivated human AB serum, penicillin (100 U/ml), and streptomycin ([…]).
(§12) MPA derivatives preparation
(§13) To achieve the desired concentrations of the tested compounds, the substances were first dissolved in DMSO to reach a final concentration of 0.01 M. The solutions were then diluted in the appropriate additive-free medium (RPMI-1640 for T-Jurkat cells and X-VIVO20 for PBMCs) to obtain […]
(§14) Peripheral blood mononuclear cells were isolated by gradient centrifugation, as described previously. Buffy coats were diluted with phosphate-buffered saline (PBS, pH = 7.4, ThermoFisher Scientific) in a 1:1 ratio, layered at Ficoll-Paque™ PLUS (VWR International), and centrifuged at 800 × g for 20 minutes. The PBMC layer was collected and washed twice with PBS (1st wash: 600 × g for 10 minutes; 2nd wash: 600 × g for 5 minutes). Cell amount and viability were assessed using the Bio-Rad TC20™ automated cell counter combined with trypan blue staining.
(§15) XTT dye-based in vitro cytotoxicity test
(§16) The cytotoxic effects of mycophenolic acid (MPA) derivatives were assessed using an in vitro XTT-based assay (Roche). PBMCs in complete X-VIVO20 medium and T-Jurkat cells in complete RPMI-1640 medium were seeded into 96-well plates at a concentration of 5∙10^5 cells/50 µl per well. 50 µl of tested compounds were added to the experimental wells to achieve final concentrations of 50, 25, 10, 5, 1, 0.1, and 0.01 µM. The background control consisted of the medium without cells, while untreated cells served as the positive control. After incubating for 48 hours for T-Jurkat cells and 96 hours for PBMCs in a humidified atmosphere with 5% CO2 at 37°C, 50 µl of freshly prepared XTT reagent was added to all wells according to the manufacturer's instructions. The plates were then incubated for an additional 24 hours under the same conditions. The conversion of the water-soluble yellow XTT tetrazolium salt to orange formazan was quantified by measuring the optical density (OD) at 450 nm using an Agilent BioTek Epoch Microplate Spectrophotometer (Agilent Technologies), with a reference wavelength of 690 nm. The results were expressed as IC50 values for compounds that […]
(§17) inhibited cell viability by more than 50%. […]
PBMCs were suspended in a 15 mL centrifuge tube at a concentration of 10-30 × 10⁶ cells in 1 mL of PBS, then, 2 μL of 1 mM VPD 450 dye solution was added, incubated for 15 min at 37°C, washed with a 9-fold volume of warm PBS and centrifuged at 400 x g for 5 min. Then, the cells were suspended […]
(Tetrazolium dyes change colour on reduction, which living cells bring about.)

Test [3] has as its system T-Jurkat cells. Nature of the test: VPD450 proliferation test (flow cytometry) on T-Jurkat cells. The class given is cell-based, human. To be noted: for EC50: Homo sapiens, T-Jurkat, 48 h, mean ± SD; for IS internal selectivity (EC50 PBMCs / EC50 T-Jurkat): ratio between VPD450 EC50 values for PBMCs and T-Jurkat cell line. On the procedure: as §1, §2, §3, §4, §5, §6, §7, §8

In test [4] the test system is PBMCs. Nature of the test: XTT cytotoxicity test on PBMCs. The class given is cell-based. To be noted: Homo sapiens, PBMC, 72 h (ESI: 96 h), viability, mean ± SD, read-out: Relative IC50 PBMCs (XTT). How it is done: as §9
Biological evaluation — PBMC and T-Jurkat cells […]
as §10, §11, §12, §13, §14, §15, §16, §17
PBMCs were suspended in a 15 mL centrifuge tube at a concentration of 10-30 × 10⁶ cells in 1 mL of PBS, then, 2 μL of 1 mM VPD 450 dye solution was added, incubated for 15 min at 37°C, washed with a 9-fold volume of warm PBS and centrifuged at 400 x g for 5 min. Then, the cells were suspended in 10 mL of X-VIVO medium with 10% FBS and centrifuged again at 400 x g for 5 min. After suspending the cells in the complete medium, the staining level was checked using flow cytometry. The cells thus obtained were stimulated with anti-CD3/anti-CD28 antibodies as described previously (see VPD450 dye-based in vitro cell proliferation test). To perform the GMP test, a proper amount of GMP was added to each well to reach its final concentration of 50 μM, and then incubated for 72 hours. Proliferative […]

Test [5] is described as follows: DPPH radical scavenging test (colorimetric). To be noted: concentration scavenging 50% of DPPH radicals; 10 min, room temperature, 517 nm; mean ± SD. On the procedure: Antioxidative properties of the obtained MPA derivatives were assessed chemically using a colorimetric DPPH test. The IC50 value represents the scavenging activity, defined as the concentration of a compound required to scavenge 50% of DPPH radicals.
Briefly, 400 µL solution of each synthesized compound with different concentrations (20–1000 µg/mL) was added to 1.6 mL DPPH solution (100 µmol/L). After shaking, the mixture was incubated at room temperature in the dark for 10 min, and then the absorbance was measured at 517 nm. The %Scavenging activity was calculated by using the formula: […]
The scavenging activity was expressed as IC50 value, defined as the concentration (mM) of compound required for scavenging DPPH radicals by 50%. IC50 values were determined by linear regression analysis using at least three different concentrations in duplicate.
Three different concentrations were prepared for each sample, while each one was analyzed in duplicate. […] The statistical analysis was performed using Tukey’s HSD test (p < 0.05). The statistical software Statistica 10 software (StatSoft Inc., Tulsa, OK, USA) was implemented for this analysis.

Usually EC50 stands for the concentration giving half of the maximal effect. Read a low EC50 as a more potent agent. In general, IC50 refers to the concentration that gives 50% inhibition. `COc1cc(/C=C/C(C)=O)ccc1OC(=O)CC/C(C)=C/Cc1c(O)c2c(c(C)c1OC)COC2=O` [MP5]: in test [1], the EC50 turned out to be 11.406 ± 0.003 µM and the “SI selectivity index PBMCs (IC50/EC50)” value worked out at 2.691. The concentration for half-maximal inhibition (IC50) in test [2] (Homo sapiens, T-Jurkat, 48 h, viability, mean ± SD, read-out: Relative IC50 T-Jurkat (XTT)) was 2.325 ± 0.004 µM. In addition, the “IS internal selectivity (IC50 PBMCs / IC50 T-Jurkat)” value in test [2] (ratio between XTT IC50 values for PBMCs and T-Jurkat cell line) worked out at 13.203. Besides, in test [3], the EC50 worked out at 1.08 ± 0.036 µM and the “IS internal selectivity (EC50 PBMCs / EC50 T-Jurkat)” value amounted to 10.542. The “SI selectivity index T-Jurkat (IC50/EC50)” value in test [3] (ratio between IC50 (XTT) and EC50 (VPD450) on T-Jurkat cell line) is listed as 2.149. In addition, in test [4], the IC50 came out at 30.698 ± 0.024 µM.

Regarding `O=C1O[C@H]([C@@H](O)CO)C(O)=C1O` [Ascorbic acid, reference compound], the 50% inhibitory concentration (IC50) in test [5] came out at 545 µM.

`COc1cc(CCC(C)=O)ccc1OC(=O)CC/C(C)=C/Cc1c(O)c2c(c(C)c1OC)COC2=O` [MP6]: in test [1], the EC50 amounted to 1.162 ± 0.003 µM and the “SI selectivity index PBMCs (IC50/EC50)” value is given as 12.664. Besides, in test [3], the concentration giving a half-maximal response (EC50) stood at 0.662 ± 0.031 µM and the “IS internal selectivity (EC50 PBMCs / EC50 T-Jurkat)” value was determined as 1.755. Further, in test [5], it took 14900 ± 340 µM to reach half-maximal inhibition (IC50). Besides, in test [4], the IC50 was found to be 14.71 ± 0.045 µM.

For `C=C[C@@](C)(/C=C/c1ccc(OC(=O)CC/C(C)=C/Cc2c(O)c3c(c(C)c2OC)COC3=O)cc1)CCC=C(C)C` [P3], the concentration for a half-maximal effect (EC50) in test [1] was 1.052 ± 0.004 µM; in test [3], 1.34 ± 0.035 µM. Besides, the “SI selectivity index PBMCs (IC50/EC50)” value in test [1] was found to be 13.419. In addition, the values for the IC50 in test [5] and in test [4] were 20100 ± 258 µM and 14.117 ± 0.007 µM, respectively.

Consider `COc1c(C)c2c(c(O)c1C/C=C(\C)CCC(=O)Oc1ccc(/C=C/C(C)=O)cc1)C(=O)OC2` [P6], for which the EC50 in test [1] is 2.215 ± 0.004 µM; in test [3] it was 2.84 ± 0.033 µM. In addition, the “SI selectivity index PBMCs (IC50/EC50)” value in test [1] stood at 3.989. Moreover, the “IS internal selectivity (EC50 PBMCs / EC50 T-Jurkat)” value in test [3] turned out to be 0.780. The IC50 in test [5] came out at 35800 ± 403 µM; in test [4], 8.836 ± 0.02 µM.

In turn, `Cc1c(C)c2c(c(C)c1O)CCC(C)(C(=O)O)O2` (stereo not drawn) [Trolox, reference compound] returned an IC50 in test [5] of 8 µM.

The values above are taken from paper PMC12271471, “Direct synthesis of mycophenolic acid aryl esters with antioxidant and antiproliferative properties” (Scientific Reports, 2025).
